Assay [1] has as its target CDK2 (Human) (UniProt P24941). Put plainly: Enzyme Assay.
In assay [2] the target is EGFR (human) (UniProt P00533).

For orientation: IC50 means the concentration that inhibits the measured activity by half. A lower IC50 goes with greater potency.

Sequence of EGFR (human) (P00533 whole entry, looked up): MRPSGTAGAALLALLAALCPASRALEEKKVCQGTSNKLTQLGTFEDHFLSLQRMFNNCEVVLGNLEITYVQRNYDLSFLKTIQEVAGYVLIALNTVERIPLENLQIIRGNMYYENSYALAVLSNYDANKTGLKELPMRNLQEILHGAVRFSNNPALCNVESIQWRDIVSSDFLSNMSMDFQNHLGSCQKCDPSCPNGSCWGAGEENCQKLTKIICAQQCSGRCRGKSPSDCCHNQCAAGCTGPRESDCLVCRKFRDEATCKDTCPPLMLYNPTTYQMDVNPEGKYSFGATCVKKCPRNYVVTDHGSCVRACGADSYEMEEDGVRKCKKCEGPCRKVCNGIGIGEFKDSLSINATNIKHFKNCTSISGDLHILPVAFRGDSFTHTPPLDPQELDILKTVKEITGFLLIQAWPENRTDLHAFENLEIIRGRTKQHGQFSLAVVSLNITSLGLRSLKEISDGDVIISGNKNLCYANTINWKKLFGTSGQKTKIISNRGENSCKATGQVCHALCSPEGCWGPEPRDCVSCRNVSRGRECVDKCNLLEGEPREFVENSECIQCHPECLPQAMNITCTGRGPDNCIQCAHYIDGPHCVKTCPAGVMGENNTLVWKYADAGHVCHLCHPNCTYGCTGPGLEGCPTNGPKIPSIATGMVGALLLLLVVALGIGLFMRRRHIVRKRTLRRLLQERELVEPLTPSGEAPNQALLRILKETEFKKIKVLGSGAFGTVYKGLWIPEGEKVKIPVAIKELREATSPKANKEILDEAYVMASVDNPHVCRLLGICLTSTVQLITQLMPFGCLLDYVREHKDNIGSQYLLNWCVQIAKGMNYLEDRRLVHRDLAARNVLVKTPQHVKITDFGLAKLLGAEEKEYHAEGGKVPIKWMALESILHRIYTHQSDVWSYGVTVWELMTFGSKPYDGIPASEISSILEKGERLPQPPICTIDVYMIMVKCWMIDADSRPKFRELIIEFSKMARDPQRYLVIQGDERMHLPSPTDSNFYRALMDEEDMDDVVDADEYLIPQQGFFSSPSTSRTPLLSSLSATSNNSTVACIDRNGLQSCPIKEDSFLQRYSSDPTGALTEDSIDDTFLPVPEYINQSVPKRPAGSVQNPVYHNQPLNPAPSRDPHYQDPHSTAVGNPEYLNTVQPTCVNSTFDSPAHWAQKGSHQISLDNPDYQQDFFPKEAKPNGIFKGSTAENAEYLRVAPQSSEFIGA

In assay [1], `Cc1[nH]nc2c1N=C(c1ccccc1F)c1cc(Cl)ccc1N2` came in with an IC50 of 0.19 µM.
For the compound `Cc1[nH]nc2c1N=C(c1ccccc1Cl)c1cc(N)ccc1N2`, the concentration for half-maximal inhibition (IC50) in assay [1] was found to be 0.088 µM; in assay [2], 0.989 µM.
For the compound `Cc1[nH]nc2c1N=C(c1ccccc1Cl)c1cc(NS(C)(=O)=O)ccc1N2`, the IC50 in assay [1] came to 0.024 µM.
`Cc1[nH]nc2c1N=C(c1ccccc1F)c1cc(C#N)ccc1N2`: the IC50 in assay [1] was determined as 0.016 µM; in assay [2], 10.9 µM.
The compound `Cc1[nH]nc2c1N=C(c1ccccc1)c1cc(Cl)ccc1N2` showed an IC50 in assay [1] of 0.49 µM.
The same measure, in the same setting: next, `COc1ccc2c(c1)C(c1ccccc1Cl)=Nc1c(n[nH]c1C)N2`: 0.32 µM; `Cc1[nH]nc2c1N=C(c1ccccc1Cl)c1cc(NS(=O)(=O)N(C)C)ccc1N2`: 0.046 µM.
Turning to `CC(=O)Nc1ccc2c(c1)C(c1ccccc1Cl)=Nc1c(n[nH]c1C)N2`, the IC50 was 0.038 µM in assay [1] and 0.726 µM in assay [2].
On to `Cc1[nH]nc2c1N=C(c1ccccc1Cl)c1cc(Cl)ccc1N2`, for which, in assay [1], the IC50 is 0.44 µM.
On the same count and under the same terms, under `Cc1[nH]nc2c1N=C(c1ccccc1F)c1cc(C(N)=O)ccc1N2` stands 0.017 µM.

For the origin of these results see the Kinase Knowledgebase extract (Sharma et al. 2016).
